Source: patent publication US5652353A, “DNAs encoding tumor necrosis factor-α muteins” (priority 1990, dated 1997)

Experiments:
[1] = system: U937 cells (predominantly but not exclusively p75-TNF-R); experiment: Competition analysis: displacement of 125I-TNF-α by unlabeled mutant TNF on U937 cells; format: binding, human; conditions: for Mean dpm: Table B
Description: Hep-2 [ATCC No. CCL 23], U937 [ATCC No. CRL 1593] and RAJI [ATCC No. CCL 86] cells were grown in RPMI 1640 medium, supplemented with 10% (v/v) inactivated .fetal calf serum, L-glutamine (2 mM), sodium pyruvate (1 mM), 2-mercaptoethanol (5×10^-5 M), 1% of a 100× mixture of non-essential amino acids [Gibro Laboratories, Paisley, GB] and gentamycine ([…]). The non-adherent cells (U937 and RAJI) were harvested after reaching a density of 1×10^6 cells/ml. For binding experiments, the adherent Hep-2 cells were grown to confluency, trypsinized, collected and seeded in large. Petri dishes (150 cm^2) at a density of 2.5×10^6 cells/ml. Subsequently, the dishes were placed in a CO2 -incubator overnight. Because Hep-2 cells are not strongly adherent, the cells could be harvested the same way as the non-adherent cells. Dulbecco's medium, supplemented with 10% inactivated newborn calf serum was used for L929 cell growth. […] A ten well dilution series of unlabeled mutant TNF ([…] to 0.004 μM) in concentration steps in multiples of 2 was set up in a microtiterplate. […] After addition of 2×10^6 cells, the total volume was 0.2 ml/well. The medium of incubation, reaction conditions and isolation of the cells were exactly the same as described above for the Scatchard analysis experiments. […] The following experimental data were used for such calculations: From each experiment shown in these tables, the KD value was calculated using the programm of Mc. Pherson et al. (1985).

Hep-2 cells = format: cell-based, human; conditions: in words; accuracy of assay a factor of 3
Description: (§1) The amount of protein was determined by the Biorad (Richmond, Calif., USA) protein dye reagent according to the instructions of the manufacturer. The purity of the TNF muteins was determined by SDS-PAGE. The cytotoxic activity on mouse L929 cells was determined using the standard L929 assay (Ruff and Gifford in "Lymphokines", ed. by E. Pick, Vol. 2, 235-275, Academic Press, 1981, Orlando, USA). The cytotoxicity assay on Hep-2 cells was performed the same way as the L929 assay with the only exception that cycloheximide (50 μg/ml) was added instead of actinomycin D.

mouse L929 cells = experiment: Standard L929 cytotoxicity assay; format: cell-based; conditions: relative to TNF-α
Description: as §1

human p75-TNF-R = experiment: Filter binding competition of 125I-TNFα on purified p75-TNF-R from HL60 cells
Description: (§2) The filters were blocked with blocking buffer (50 mM Tris, 140 mM NaCl, 5 mM EDTA, 0.02% NaN3, 1% defatted milk powder) for 1.5 hours at room temperature. […] The filters were washed with blocking buffer (2× for 5 min.) and with H2 O (1× for 5 min.), air dried, and counted in a γ-counter.

human p55-TNF-R = experiment: Filter binding competition of 125I-TNFα on purified p55-TNF-R from HL60 cells; conditions: with respect to TNFα
Description: as §2

**Q.** Which “binding affinity for p75-TNF-R as share of its binding affinity to p55-TNF-R” value [1] does the source give for “Trp^32 -TNFα: TNF-α mutein with tryptophan substituted at position 32, SEQ ID No: 9” here?
**A.** about 3%

**Q.** What about the Mean dpm ([1]; experiment 1, U937 cells, concentration of mutant 1 × 10^-6) of the same substance?
**A.** 777 dpm

**Q.** And the Mean dpm ([1]; experiment 1, U937 cells, concentration of mutant 1 × 10^-9)?
**A.** 1917 dpm

**Q.** And the Mean dpm ([1]; experiment 1, U937 cells, concentration of mutant 1.25 × 10^-7)?
**A.** 1166 dpm

**Q.** What about the Mean dpm ([1]; experiment 1, U937 cells, concentration of mutant 1.5 × 10^-8) of the same substance?
**A.** 1488 dpm

**Q.** What about the Mean dpm ([1]; experiment 1, U937 cells, concentration of mutant 2 × 10^-6) of the same substance?
**A.** 628 dpm

**Q.** What about the Mean dpm ([1]; experiment 1, U937 cells, concentration of mutant 2 × 10^-9) of the same substance?
**A.** 1698 dpm

**Q.** What about the Mean dpm ([1]; experiment 1, U937 cells, concentration of mutant 3 × 10^-8) of the same substance?
**A.** 1377 dpm

**Q.** What about the Mean dpm ([1]; experiment 1, U937 cells, concentration of mutant 4 × 10^-9) of the same substance?
**A.** 1655 dpm

**Q.** What about the Mean dpm ([1]; experiment 1, U937 cells, concentration of mutant 5 × 10^-7) of the same substance?
**A.** 953 dpm

**Q.** And the Mean dpm ([1]; experiment 1, U937 cells, concentration of mutant 6 × 10^-8)?
**A.** 1333 dpm

**Q.** And the Mean dpm ([1]; experiment 1, U937 cells, concentration of mutant 8 × 10^-9)?
**A.** 1585 dpm

**Q.** What about the Mean dpm ([1]; experiment 1, U937 cells, concentration of mutant […] 10^-7) of the same substance?
**A.** 1026 dpm

**Q.** And the Mean dpm ([1]; experiment 2, U937 cells, concentration of mutant 1.10^-6)?
**A.** 357 dpm

**Q.** What about the Mean dpm ([1]; experiment 2, U937 cells, concentration of mutant 1.2 × 10^-7) of the same substance?
**A.** 508 dpm

**Q.** And the Mean dpm ([1]; experiment 2, U937 cells, concentration of mutant 1.5 × 10^-8)?
**A.** 636 dpm

**Q.** What about the Mean dpm ([1]; experiment 2, U937 cells, concentration of mutant 2 × 10^-6) of the same substance?
**A.** 294 dpm

**Q.** What about the Mean dpm ([1]; experiment 2, U937 cells, concentration of mutant 3 × 10^-8) of the same substance?
**A.** 585 dpm

**Q.** What about the Mean dpm ([1]; experiment 2, U937 cells, concentration of mutant 4 × 10^9) of the same substance?
**A.** 653 dpm

**Q.** And the Mean dpm ([1]; experiment 2, U937 cells, concentration of mutant 5 × 10^-7)?
**A.** 422 dpm

**Q.** And the Mean dpm ([1]; experiment 2, U937 cells, concentration of mutant 6 × 10^-8)?
**A.** 546 dpm

**Q.** And the Mean dpm ([1]; experiment 2, U937 cells, concentration of mutant 8 × 10^-9)?
**A.** 629 dpm

**Q.** And the Mean dpm ([1]; experiment 2, U937 cells, concentration of mutant […] 10^-7)?
**A.** 479 dpm

**Q.** What about the Mean dpm ([1]; experiment 3 (125I-TNF batch 2), U937 cells, concentration of mutant 1 × 10^-6) of the same substance?
**A.** 1192 dpm

**Q.** And the Mean dpm ([1]; experiment 3 (125I-TNF batch 2), U937 cells, concentration of mutant 1.25 × 10^-7)?
**A.** 2387 dpm

**Q.** What about the Mean dpm ([1]; experiment 3 (125I-TNF batch 2), U937 cells, concentration of mutant 1.5 × 10^-8) of the same substance?
**A.** 3620 dpm

**Q.** And the Mean dpm ([1]; experiment 3 (125I-TNF batch 2), U937 cells, concentration of mutant 2 × 10^-6)?
**A.** 814 dpm

**Q.** What about the Mean dpm ([1]; experiment 3 (125I-TNF batch 2), U937 cells, concentration of mutant 3 × 10^-8) of the same substance?
**A.** 3275 dpm

**Q.** And the Mean dpm ([1]; experiment 3 (125I-TNF batch 2), U937 cells, concentration of mutant 4 × 10^-9)?
**A.** 4759 dpm

**Q.** What about the Mean dpm ([1]; experiment 3 (125I-TNF batch 2), U937 cells, concentration of mutant 5 × 10^-7) of the same substance?
**A.** 1472 dpm

**Q.** What about the Mean dpm ([1]; experiment 3 (125I-TNF batch 2), U937 cells, concentration of mutant 6 × 10^-8) of the same substance?
**A.** 3034 dpm

**Q.** And the Mean dpm ([1]; experiment 3 (125I-TNF batch 2), U937 cells, concentration of mutant 8 × 10^-9)?
**A.** 4041 dpm

**Q.** What about the Mean dpm ([1]; experiment 3 (125I-TNF batch 2), U937 cells, concentration of mutant […] 10^-7) of the same substance?
**A.** 1981 dpm

**Q.** What about the “reduction of binding affinity for p75-TNF-R” value ([1]; relative to its binding affinity to p55-TNF-R) of the same substance?
**A.** approximately 33 fold

**Q.** What about the “biological activity (specific activity) on Hep-2 cells” value (Hep-2 cells) of the same substance?
**A.** largely retained

**Q.** And the “decrease of biological activity on L929 cells (factor)” value (mouse L929 cells)?
**A.** more than 100

**Q.** And the IC50 (human p75-TNF-R; competition with 125I-TNFα)?
**A.** 5 µg/mL

**Q.** What about the “Decrease in Affinity” value (human p75-TNF-R; with respect to TNFα) of the same substance?
**A.** 500 fold

**Q.** What about the “Decrease in Affinity” value (human p55-TNF-R) of the same substance?
**A.** 1.5 fold
